The source of these data is patent publication EP3964206A1, “COMPOUNDS FOR THE TREATMENT OF COVID-19” (priority 2020, dated 2022).

The IC50 is the point on the concentration scale where inhibition reaches its midpoint.

Where a name gives a salt, the structure may show the parent alone. Read-outs that look alike come from different tables or passages of the source.

In this test the test system is SARS-CoV-2. Description: microbe, parasite or virus in culture. Type of test: cell-based. The following applies: for Emax: read-out: Maximum confluence reached (%).
[1] abbreviates: Severe acute respiratory syndrome coronavirus 2, 120 h.

Take `CC[C@@]1([C@@H]2O[C@@H]([C@H]3O[C@@](O)(COC(=O)Nc4ccccc4)[C@H](C)C[C@@H]3C)C[C@@H]2C)CC[C@H]([C@]2(C)CC[C@]3(C[C@H](O)[C@@H](C)[C@@H]([C@@H](C)[C@@H](OC)[C@H](C)C(=O)O)O3)O2)O1` [Compound 98, 4(S)-[(2S,5R,7S,8R,9S)-2-[(2S,2'R,3'S,5R,5'R)-2-Ethyl-5'-[6(R)-hydroxy-3(S),5(R)-dimethyl-6-(phenylaminocarbonyloxymethyl)tetrahydropyran-2(S)-yl]-3'-methylperhydro-2,2'-bifuran-5-yl]-9-hydroxy-2,8-dimethyl-1,6-dioxaspiro[4.5]dec-7-yl]-3(R)-methoxy-2(S)-methylpentanoic acid sodium salt]: under setting [1], the midpoint of inhibition, the IC50, lay at 3.18 µM and the Emax turned out to be 38.2%.

For the molecule `CC(C)(C)c1cc(C=C(C#N)C#N)cc(Br)c1O` [Compound 99, 2-(3-Bromo-5-tert-butyl-4-hydroxybenzylidene)propanedinitrile], under setting [1], 7.23 µM corresponded to half-maximal inhibition (IC50) and the Emax was 37.3%. As for `O=C(Nc1ccc(Cl)cc1)Nc1ccc(Cl)c(Cl)c1` [Compound 100, 3-(4-Chlorofenil)-1-(3,4-diclorofenil)urea], the Emax under setting [1] stood at 47.2%.

In the case of `Oc1c(Cl)cc(Cl)cc1Sc1cc(Cl)cc(Cl)c1O` [Compound 102, 2,2'-Thio-bis(4,6-dichlorophenol)], under setting [1], the Emax is 31.2%. Under setting [1], `CC(C)(C)c1cc(C=C(C#N)C#N)cc(C(C)(C)C)c1O` [Compound 103, (3,5-Di-tert-butyl-4-hydroxybenzylidene)malononitrile] returned an IC50 of 205 µM. In the case of `Nc1ccc(C(=O)Nc2cccc(-c3nc(N4CCOCC4)c4oc5ncccc5c4n3)c2)cn1` [Compound 104, 6-Amino-N-[3-[4-(4-morpholinyl)pyrido[3',2':4,5]furo[3,2-d]pyrimidin-2-yl]phenyl]pyridine-3-carboxamide], the Emax under setting [1] is 35.5%. For `O=C(O)c1ccc(N2C(=O)C(=Cc3ccc(-c4ccc([N+](=O)[O-])cc4)o3)C=C2c2ccccc2)cc1` [Compound 105, 4-[3-[5-(4-Nitrophenyl)furan-2-ylmethylene]-2-oxo-5-phenyl-2,3-dihydro-1H-pyrrol-1-yl]benzoic acid], under setting [1], the IC50 worked out at 236 µM and the Emax came to 52.1%. As to `CCN(CC)Cc1cc(Nc2ccnc3cc(Cl)ccc23)ccc1O` [Compound 106, 4-(7-Chloroquinolin-4-ylamino)-2-(diethylaminomethyl)phenol hydrochloride], under setting [1], the IC50 stood at 21.5 µM and the Emax is 37.5%. In the case of `CCN(CC)CCCCNc1ncc2cc(-c3c(Cl)cccc3Cl)c(NC(=O)NC(C)(C)C)nc2n1` [Compound 107, 1-tert-Butyl-3-[6-(2,6-dichlorophenyl)-2-[4-(diethylamino)butylamino]pyrido[2,3-d]pyrimidin-7-yl]urea], under setting [1], the IC50 worked out at 145 µM and the Emax worked out at 34.1%.

As for `CC(C)C[C@H](NC(=O)CNC(=O)c1cc(Cl)ccc1Cl)B(O)O` [Compound 108, 1(R)-[2-(2,5-Dichlorobenzamido)acetamido]-3-methylbutylboronic acid], under setting [1], 135 µM corresponded to half-maximal inhibition (IC50) and the Emax was found to be 30.8%.

Consider `CN1CCN(CC/C=C2/c3ccccc3Sc3ccc(S(=O)(=O)N(C)C)cc32)CC1` [Compound 109, (Z)-N,N-Dimethyl-9-[3-(4-methyl-1-piperazinyl)propylidene]thioxanthene-2-sulfonamide], for which, under setting [1], the Emax is 36.5%. As for `CN(C)C(=O)C(CCN1CCC(O)(c2ccc(Cl)cc2)CC1)(c1ccccc1)c1ccccc1` [Compound 110, 4-[4-(4-Chlorophenyl)-4-hydroxypiperidin-1-yl]-N,N-dimethyl-2,2-diphenylbutyramide hydrochloride], the Emax under setting [1] was 34.4%. Consider “(1R,2S,3R)-3-(6-Amino-9H-purin-9-yl)-1,2-cyclopentanediol [Compound 75]”, for which the “Maximum confluence reached (%)” value was 33.14%. The IC50 (read-out: IC50) turned out to be 0.36 µM.

As to “(4R,4aS)-18-Ethenyl-4,4a-dihydro-3,4-bis(methoxycarbonyl)-4a,8,14,19-tetramethyl-24H,26H-benzo[b]porphine-9,13-dipropanoic acid monomethyl ester [Compound 39]”, the “Maximum confluence reached (%)” value is 89.5%. Moreover, the IC50 (read-out: IC50) amounted to 30 µM.
